Experimental data from patent publication US20260102377A1, “COMPOSITIONS AND METHODS FOR TREATING MYASTHENIA GRAVIS” (priority 2022, published 2026).
Entries after “also recorded” stand apart in the source; their conditions may differ. Where two headings read alike, the source gives them in different places.

Columns and labels:
[1] = system: soleus muscle fibres from healthy and EAMG rats; assay: Rheobase current (muscle fibre excitability) in soleus muscle fibres; format: cell-based, rat; settings: 20 μM NMD670; soleus muscle fibres from healthy (n=20) and EAMG (n=12) rats, before vs after addition
Source text: To allow for measurements of electrophysiological properties at the cellular level and for measurements of force, it was necessary to isolate nerve-muscle preparations from the rats. To this end, animals were sacrificed, and muscles were dissected out with 1 to 3 cm of intact nerve. The nerve-muscle preparations were then transferred to the organ baths used for the particular experiments (see below) and perfused with Normal Krebs-Ringer (NKR) solution, consisting of (in mM); 122 NaCl, 25 NaHCO3, 2.8 KCl, 1.2 KH2PO4, 1.2 MgSO4 1.27 CaCl2 and 5 D-glucose. This NKR solution was continuously gassed with a mixture of 95% oxygen and 5% CO2, to maintain a pH of approx. 7.4. In some experiments methyl-sulphate was used to replace Cl^− in the solution. All chemicals used were of analytical grade.

[2] = Phase I clinical trial Part A: pharmacokinetics; format: in vivo; settings: human; for Cmax / half-life / AUC(0-inf): plasma; for AUC(0-inf): read-out: AUC0-infinity (Mean ± SD, h · ng/mL)
[3] = Tablet dissolution; format: physicochemical; settings: after a maximum of 60 minutes; USP2 paddles 75 RPM, 900 ml dissolution media pH 6.8, 37° C.
Procedure: Tablet dissolution was determined as follows.
Dissolution Media pH 6.8 was prepared by dissolving 27.3 g Na2HPO4·2H2O and 4.9 g Citric Acid in 1 L Milli-Q water. The pH was measured and adjusted if necessary to pH 6.8.
900 mL of dissolution media pH 6.8 was accurately transferred into each dissolution vessel. The apparatus was assembled, and the dissolution media was heated to 37° C.±0.5° C. The T=0 point was extracted from each vessel prior to dropping the tablets into the dissolution vessels. One tablet was gently dropped into each dissolution vessel, and rotation of the paddle was immediately started. Samples were taken that the sample extraction timepoints and analysed using the HPLC method.

[4] = system: patients with MG; assay: Phase 1 FIH study: safety in patients with MG; format: in vivo, human
Procedure: (§1) 12 patients were enrolled and completed the study. For each subject, the study consisted of three study periods during which subjects received either a single dose of NMD670 400 mg, NMD670 1200 mg, or placebo with a 7-day washout period between visits. On these study visits, subjects were asked to refrain from their regular dose of pyridostigmine (if applicable) from 14 h before dosing until after the last pharmacodynamic measurement on Day 1 (see Table 13: Visit and Assessment Schedule). The cross-over design allowed intra-individual comparison of drug effects versus placebo (see FIG. 16). A balanced design was applied to control for first-order carry-over effects.
(§2) Part C was a double-blinded, placebo-controlled, three-way cross-over comparison of two single oral doses of NMD670 in men and women with stable symptomatic myasthenia gravis. 12 patients were enrolled. For each subject, the study consisted of three study periods during which subjects received either a single dose of NMD670 or placebo. On these study visits, subjects were asked to refrain from their regular dose of pyridostigmine (if applicable) for 14 hours before dosing. Single doses were administered in randomized order (400 mg free acid, 1200 mg free acid, or placebo p.o.), with a 7-day washout period between visits (FIG. 16). NMD670/placebo was administered with 240 ml of still water.

[5] = system: patients with myasthenia gravis; assay: Phase IIA clinical trial (Part C): Quantitative Myasthenia Gravis test; format: in vivo, human
Procedure: as §1, with “For” for “12 patients were enrolled and completed the study. For”
as §2
The Quantitative Myasthenia Gravis (QMG) total score (Barohn et al., Ann N YAcad Sci 1998, 841:769-72) is a validated clinical measure of sentinel muscle groups developed by the Myasthenia Gravis Foundation of America and the current clinical gold standard recommended for all prospective studies in MG. The QMG test is a physician-rated test using 13 assessments (see table 1), including facial strength, swallowing, respiratory, grip strength, and duration of time that limbs can be maintained in outstretched positions. Each of the 13 items is scored from 0 (none) to 3 (severe).
The total score can range from 0 to 39.

[6] = system: patients with myasthenia gravis; assay: Phase IIA clinical trial (Part C): hand grip strength (Jamar dynamometer); format: in vivo, human
Procedure: as §1, with “For” for “12 patients were enrolled and completed the study. For”
as §2
Hand grip was evaluated with a Jamar hand grip dynamometer. An analysis of hand grip strength, an item of QMG score and therefore not an independent variable for the total score, was also performed (table 18).

[7] = male, po, 1600 mg, 1600 mg single oral dose, healthy male subjects, SD not given
[8] = 400 mg group, 3-hour measurements
[9] = 1200 mg group, 3- and 5-hour measurements
[10] = single doses, 12 patients with MG

C[C@H](Oc1ccc(Br)cc1-c1ccon1)C(=O)O [NMD670, (2S)-2-[4-bromo-2-(1,2-oxazol-3-yl)phenoxy]propanoic acid]
Rheobase current [1]: significantly reduced rheobase current | Cmax ([2]; female, po, 800 mg, 800 mg (female), single oral dose, read-out: Cmax (Mean ± SD, ng/mL)): 44400 ± 7480 ng/mL | Accumulation between single and multiple dosing ([2]; phase 1 FIH study): no meaningful accumulation | half-life ([2]; oral, mostly eliminated in 24 hours, read-out: Half-life (converted)): ~5 h | Cmax ([2]; male, po, 50 mg, 50 mg single oral dose, healthy male subjects, read-out: Cmax (Mean ± SD, ng/mL)): 1900 ± 580 ng/mL | AUC(0-inf) ([2]; male, po, 100 mg, 100 mg single oral dose, healthy male subjects): 18.5 ± 1.77 µg·h/mL | Cmax ([2]; male, po, 100 mg, 100 mg single oral dose, healthy male subjects, read-out: Cmax (Mean ± SD, ng/mL)): 3980 ± 1190 ng/mL | half-life ([2]; male, po, 100 mg, 100 mg single oral dose, healthy male subjects, read-out: T1/2 (mean ± SD, hr) (converted)): 5.07 ± 0.63 h | AUC(0-inf) ([2]; male, po, 200 mg, 200 mg single oral dose, healthy male subjects): 36.1 ± 5.03 µg·h/mL | Cmax ([2]; male, po, 200 mg, 200 mg single oral dose, healthy male subjects, read-out: Cmax (Mean ± SD, ng/mL)): 7780 ± 1130 ng/mL | half-life ([2]; male, po, 200 mg, 200 mg single oral dose, healthy male subjects, read-out: T1/2 (mean ± SD, hr) (converted)): 4.6 ± 0.67 h | AUC(0-inf) ([2]; male, po, 400 mg, 400 mg single oral dose, healthy male subjects): 87.7 ± 21.4 µg·h/mL | Cmax ([2]; male, po, 400 mg, 400 mg single oral dose, healthy male subjects, read-out: Cmax (Mean ± SD, ng/mL)): 20100 ± 7340 ng/mL | half-life ([2]; male, po, 400 mg, 400 mg single oral dose, healthy male subjects, read-out: T1/2 (mean ± SD, hr) (converted)): 4.68 ± 0.49 h | AUC(0-inf) ([2]; male, po, 800 mg, 800 mg fasted (male), single oral dose): 191 ± 31.5 µg·h/mL | Cmax ([2]; male, po, 800 mg, 800 mg fasted (male), single oral dose, read-out: Cmax (Mean ± SD, ng/mL)): 36700 ± 15400 ng/mL | AUC(0-inf) ([2]; male, po, 800 mg, 800 mg fed (male), single oral dose): 180 ± 27.9 µg·h/mL | Cmax ([2]; male, po, 800 mg, 800 mg fed (male), single oral dose, read-out: Cmax (Mean ± SD, ng/mL)): 37300 ± 7420 ng/mL | AUC(0-inf) ([2]; male, po, 1200 mg, 1200 mg single oral dose, healthy male subjects): 358 ± 176 µg·h/mL | Cmax ([2]; male, po, 1200 mg, 1200 mg single oral dose, healthy male subjects, read-out: Cmax (Mean ± SD, ng/mL)): 55000 ± 21700 ng/mL | half-life ([2]; male, po, 1200 mg, 1200 mg single oral dose, healthy male subjects, read-out: T1/2 (mean ± SD, hr) (converted)): 6.11 ± 1.28 h | Cmax [2, 7]: 123000 ng/mL | AUC(0-inf) [2, 7]: 826 µg·h/mL | half-life ([2]; male, po, 1600 mg, 1600 mg single oral dose, healthy male subjects, SD not given, read-out: T1/2 (mean ± SD, hr) (converted)): 4.48 h | NMD670 released from the tablets [3]: Not less than 80% | Treatment-related adverse effects in MG patients ([4]; 1200 mg doses): no treatment-related adverse effects | Myotonia in patients with MG ([4]; single doses up to 1200 mg): not observed | Patients achieving a 2-point or larger improvement in QMG total score [5, 8]: 6 of 12 | QMG responder rate (2-point or larger improvement from baseline compared to placebo) [5, 8]: 50% | Patients achieving a 2-point or larger improvement in QMG total score ([5]; 400 mg group, 5-hour): 5 of 12 | QMG responder rate (2-point or larger improvement from baseline compared to placebo) ([5]; 400 mg group, 5-hour): 42% | QMG total score, LSM change over placebo (given as positive improvement) ([5]; 400 mg treatment group, 3-hour timepoint, p=0.12): 1.3 points | QMG total score, Arithmetic Mean change (given as positive improvement) ([5]; 400 mg treatment group, 5-hour timepoint): 2.1 points | QMG total score, LSM change over placebo (given as positive improvement) ([5]; 400 mg treatment group, 5-hour timepoint, p=0.02): 1.7 points | QMG total score, CFB over placebo, Arithmetic mean ([5]; 400 mg versus placebo, 3-hour): −1.6 points | QMG total score, CFB over placebo, LSM ([5]; 400 mg versus placebo, 3-hour, p = 0.12): −1.2 points | QMG total score, CFB over placebo, Arithmetic mean ([5]; 400 mg versus placebo, 5-hour): −2.1 points | QMG total score, CFB over placebo, LSM ([5]; 400 mg versus placebo, 5-hour, p = 0.02): −1.7 points | QMG total score, CFB over placebo, LSM ([5]; 400 mg versus placebo, Overall, p = 0.03, single oral dose, 12 MG patients): −1.5 points | Patients achieving a 2-point or larger improvement in QMG total score [5, 9]: 5 of 12 | QMG responder rate (2-point or larger improvement from baseline compared to placebo) [5, 9]: 42% | QMG total score, Least Mean Square change improvement from baseline over placebo ([5]; 1200 mg group, 3-hour timepoint): 0.9 points | QMG total score, Least Mean Square change improvement from baseline over placebo ([5]; 1200 mg group, 5-hour timepoint): 1.1 points | QMG total score, Least Mean Square change improvement from baseline over placebo ([5]; 1200 mg group, overall, non-statistically significant): 1.0 points | QMG total score, CFB over placebo, Arithmetic mean ([5]; 1200 mg versus placebo, 3-hour): −1.2 points | QMG total score, CFB over placebo, LSM ([5]; 1200 mg versus placebo, 3-hour, p = 0.25): −0.9 points | QMG total score, CFB over placebo, Arithmetic mean ([5]; 1200 mg versus placebo, 5-hour): −1.5 points | QMG total score, CFB over placebo, LSM ([5]; 1200 mg versus placebo, 5-hour, p = 0.14): −1.1 points | QMG total score, CFB over placebo, LSM ([5]; 1200 mg versus placebo, Overall, p = 0.14): −1 points | QMG individual items: double vision, ptosis and dysarthria compared to placebo ([5]; both 400 mg and 1200 mg doses, non-statistically significant): improved | Patients meeting responder criterion (QMG) [5, 10]: up to 50% | QMG total Score after single doses [5, 10]: clinically significant improvements | QMG total score, LSM change from baseline improvement over placebo (given as positive improvement) ([5]; worded 'the NMD670 treatment arms', p=0.03 (Table 17: 400 mg overall)): 1.5 points | Right-hand grip strength, CFB over placebo, Arithmetic mean ([6]; 400 mg versus placebo, 3-hour): 2.4 kg | Right-hand grip strength, CFB over placebo, LSM ([6]; 400 mg versus placebo, 3-hour, p = 0.05): 2.4 kg | Right-hand grip strength, CFB over placebo, Arithmetic mean ([6]; 400 mg versus placebo, 5-hour): 0.4 kg | Right-hand grip strength, CFB over placebo, LSM ([6]; 400 mg versus placebo, 5-hour, p = 0.76): 0.4 kg | Right-hand grip strength, CFB over placebo, LSM ([6]; 400 mg versus placebo, Overall, p = 0.19): 1.4 kg | Right-hand grip strength, CFB over placebo, Arithmetic mean ([6]; 1200 mg versus placebo, 3-hour): 2.9 kg | Right-hand grip strength, CFB over placebo, LSM ([6]; 1200 mg versus placebo, 3-hour, p = 0.02): 2.9 kg | Right-hand grip strength, CFB over placebo, Arithmetic mean ([6]; 1200 mg versus placebo, 5-hour): 2.8 kg | Right-hand grip strength, CFB over placebo, LSM ([6]; 1200 mg versus placebo, 5-hour, p = 0.03): 2.8 kg | Right-hand grip strength, CFB over placebo, LSM ([6]; 1200 mg versus placebo, Overall, p = 0.01): 2.8 kg | Change from baseline over placebo in hand grip strength, left and right hand ([6]; both doses (400 mg, 1200 mg), statistically significant for the right hand): improved; also recorded: numerically positive
